Results: patent US7148249B2, “Indolinones substituted by heterocycles, the preparation thereof and their use as medicaments” (Boehringer Ingelheim Pharma GmbH & Co. KG, priority 2002, dated 2006)
Structures can show the parent of a compound that is named as a salt.

Experiments:
[1] = test system: Human umbilical endothelial cells (HUVEC); assay: Inhibition of VEGF165-stimulated HUVEC proliferation (3H-thymidine incorporation); type: cell-based; conditions: HUVEC proliferation stimulated with 5 ng/ml VEGF165 and 10 μg/ml heparin, 76 h incubation + 16 h 3H-thymidine
Procedure: Human umbilical endothelial cells (HUVEC) were cultivated in IMDM (Gibco BRL), supplemented with 10% foetal calf serum (FBS) (Sigma), 50 μM of β-mercaptoethanol (Fluka), standard antibiotics, 15 μg/ml of endothelial cell growth factor (ECGS, Collaborative Biomedical Products) and 100 μg/ml of heparin (Sigma) on gelatine-coated culture dishes (0.2% gelatine, Sigma) at 37° C., under 5% CO2 in a water-saturated atmosphere.
In order to investigate the inhibitory activity of the compounds according to the invention the cells were “starved” for 16 hours, i.e. kept in culture medium without growth factors (ECGS+heparin). The cells were detached from the culture dishes using trypsin/EDTA and washed once in serum-containing medium. Then they were seeded out in amounts of 2.5×10^3 cells per well.
The proliferation of the cells was stimulated with 5 ng/ml of VEGF165 (vascular endothelial growth factor; H. Weich, GBF Braunschweig) and 10 μg/ml of heparin. As a control, 6 wells in each dish were not stimulated.
The compounds according to the invention were dissolved in 100% dimethylsulphoxide and added to the cultures in various dilutions as triple measurements, the maximum dimethylsulphoxide concentration being 0.3%.
The cells were incubated for 76 hours at 37° C., then for a further 16 hours ^3H-thymidine (0.1 μCi/well, Amersham) was added in order to determine the DNA synthesis. Then the radioactively labelled cells were immobilised on filter mats and the radioactivity incorporated was measured in a β-counter. In order to determine the inhibitory activity of the compounds according to the invention the mean value of the non-stimulated cells was subtracted from the mean value of the factor-stimulated cells (in the presence or absence of the compounds according to the invention).
The relative cell proliferation was calculated as a percentage of the control (HUVEC without inhibitor) and the concentration of active substance which inhibits the proliferation of the cells by 50% (IC50) was determined.

## CCNCc1ccc(N/C(=C2\C(=O)Nc3cc(F)ccc32)c2ccc3c(c2)ncn3C)cc1 (as salt: salt) [Example 11, 6-fluoro-3-(Z)-{1-[4-(ethylaminomethyl)-phenylamino]-1-(1-methylbenzimidazol-5-yl)-methylene}-2-indolinone]
other
  melting point: 226 to 228 °C

## CNC(=O)c1ccc2c(c1)NC(=O)/C2=C(\Nc1ccc(CN2CCN(C)CC2)cc1)c1ccc2c(c1)OCCO2 [Example 10.0, 6-methylaminocarbonyl-3-(Z)-{1-[4-(1-methylpiperazin-4-yl-methyl)-phenylamino]-1-(3,4-ethylenedioxyphenyl)-methylene}-2-indolinone]
other
  melting point: 172 °C

## CN(C)CC(=O)N(C)c1ccc(N/C(=C2\C(=O)Nc3ccccc32)c2cnccn2)cc1 [Example 2.0, 3-(Z)-{1-[4-(N-dimethylaminomethylcarbonyl-N-methyl-amino)-phenylamino]-1-(2-pyrazinyl)-methylene}-2-indolinone]
other
  melting point: 198 to 199 °C

## CN(C)CCN(c1ccc(N/C(=C2\C(=O)Nc3cc(Cl)ccc32)c2ccc3c(c2)OCCO3)cc1Cl)S(C)(=O)=O [(ba), 6-chloro-3-(Z)-[1-(4-{N-(2-dimethylamino-ethyl)-N-methanesulphonyl-amino}-3-chloro-phenylamino)-1-(1,2-ethylenedioxyphen-4-yl)-methylene]-2-indolinone]
[1]
  IC50: 30 nM

## COC(=O)c1ccc2c(c1)NC(=O)/C2=C(\Nc1ccc(C(=O)N(C)CCCN(C)C)cc1)c1ccc2c(c1)OCCO2 [(ae), 3-(Z)-{1-(4-[N-methyl-N-(3-dimethylaminopropyl)aminocarbonyl]-phenylamino)-1-(3,4-ethylenedioxyphenyl)-methylene}-6-methoxycarbonyl-2-indolinone]
[1]; Homo sapiens
  IC50: 0.5 nM

## CN(C)CCN(c1ccc(N/C(=C2\C(=O)Nc3cc(Cl)ccc32)c2ccc3c(c2)OCCO3)cc1)S(C)(=O)=O [(h), 3-(Z)-{1-(4-[N-methanesulphonyl-N-(2-dimethylaminoethyl)-amino]-phenylamino)-1-(3,4-ethylenedioxyphenyl)-methylene}-6-chloro-2-indolinone]
[1]; Homo sapiens
  IC50: 3 nM

## CN(C)CCN(C(=O)c1cccnc1)c1ccc(N/C(=C2\C(=O)Nc3cc(Cl)ccc32)c2ccc3c(c2)OCO3)cc1 [(ao), 3-(Z)-{1-(4-[N-(3-pyridylcarbonyl)-N-(2-dimethylaminoethyl)-amino]-phenyl-amino)-1-(3,4-methylenedioxyphenyl)-methylene}-6-chloro-2-indolinone]
[1]; Homo sapiens
  IC50: 6 nM

## COC(=O)c1ccc2c(c1)NC(=O)/C2=C(\Nc1ccc(CN(C)C)cc1)c1ccc2c(c1)OCO2 [(w), 3-(Z)-{1-(4-[dimethylamino-methyl]-phenylamino)-1-(3,4-methylenedioxyphenyl)-methylene}-6-methoxycarbonyl-2-indolinone]
[1]; Homo sapiens
  IC50: 0.5 nM

## CCNCc1ccc(N/C(=C2\C(=O)Nc3cc(Cl)ccc32)c2ccc3c(c2)OCO3)cc1 (as salt: salt) [Example 8.0, 6-chloro-3-(Z)-{1-[4-(ethylaminomethyl)-phenylamino]-1-(3,4-methylenedioxyphenyl)-methylene}-2-indolinone]
other
  melting point: 248 to 250 °C

## CC(=O)N(CCN(C)C)c1ccc(N/C(=C2\C(=O)Nc3cc(Cl)ccc32)c2ccc3c(c2)OCCO3)cc1 [(p), 3-(Z)-{1-(4-[N-acetyl-N-(2-dimethylaminoethyl)-amino]-phenylamino)-1-(3,4-ethylenedioxyphenyl)-methylene}-6-chloro-2-indolinone]
[1]; Homo sapiens
  IC50: 2 nM

## CN1CCC(N/C(=C2\C(=O)Nc3ccccc32)c2ccoc2)CC1 [Example 6.0, 3-(Z)-[1-(1-methylpiperidin-4-ylamino)-1-(3-furyl)-methylene]-2-indolinone]
other
  melting point: 255 to 260 °C

## COC(=O)c1ccc2c(c1)NC(=O)/C2=C(\Nc1ccc(N(C)C(=O)CN2CCN(C)CC2)cc1)c1ccc2c(c1)OCCO2 [(j), 3-(Z)-{1-(4-[N-methyl-N-(4-methylpiperazin-1-yl-methylcarbonyl)-amino]-phenyl-amino)-1-(3,4-ethylenedioxyphenyl)-methylene}-6-methoxycarbonyl-2-indolinone]
[1]; Homo sapiens
  IC50: 0.2 nM

## COC(=O)c1ccc2c(c1)NC(=O)/C2=C(\Nc1ccc(N(CCN(C)C)S(C)(=O)=O)cc1)c1ccc2c(c1)OCCO2 [(r), 3-(Z)-{1-(4-[N-methanesulphonyl-N-(2-dimethylaminoethyl)-amino]-phenylamino)-1-(3,4-ethylenedioxyphenyl)-methylene}-6-methoxycarbonyl-2-indolinone]
[1]; Homo sapiens
  IC50: 0.2 nM

## CCC(=O)N(CCCN(C)C)c1ccc(N/C(=C2\C(=O)Nc3cc(F)ccc32)c2ccc3c(c2)OCCO3)cc1 [(z), 3-(Z)-{1-(4-[N-propionyl-N-(3-dimethylaminopropyl)-amino]-phenylamino)-1-(3,4-ethylenedioxyphenyl)-methylene}-6-fluoro-2-indolinone]
[1]; Homo sapiens
  IC50: 0.5 nM

## CN(C)CC(=O)N(C)c1ccc(N/C(=C2\C(=O)Nc3cc(Cl)ccc32)c2ccncc2)cc1 [Example 3.0, 6-Chloro-3-(Z)-[1-(4-{N-(dimethylaminomethylcarbonyl)-N-methyl-amino}-phenyl-amino)-1-(4-pyridyl)-methylene]-2-indolinone]
other
  melting point: 274 to 276 °C

## CN1CCN(Cc2ccc(N/C(=C3\C(=O)Nc4cc(Cl)ccc43)c3ccc4c(c3)OCO4)cc2)CC1 [(q), 3-(Z)-{1-(4-[4-methylpiperazin-1-yl-methyl]-phenylamino)-1-(3,4-methylenedioxy-phenyl)-methylene}-6-chloro-2-indolinone]
[1]; Homo sapiens
  IC50: 2 nM

## COc1cc(N/C(=C2\C(=O)Nc3cc(F)ccc32)c2ccc3c(c2)OCCO3)ccc1N(C)C(=O)CN(C)C [(bc), 6-fluoro-3-(Z)-{1-[4-(N-dimethylaminomethylcarbonyl-N-methyl-amino)-3-methoxy-phenylamino]-1-(1,2-ethylenedioxyphen-4-yl)-methylene}-2-indolinone]
[1]
  IC50: 5 nM

## Cn1cnc2cc(/C(Nc3ccc(N4CCCC4=O)cc3)=C3/C(=O)Nc4cc(F)ccc43)ccc21 [(as), 3-(Z)-{1-[4-(pyrrolid-2-on-1-yl)-phenylamino]-1-(1-methyl-benzimidazol-5-yl)-methylene}-6-fluoro-2-indolinone]
[1]
  IC50: 18 nM

## CN1CCN(CC(=O)N(C)c2ccc(N/C(=C3\C(=O)Nc4cc(Cl)ccc43)c3ccc4nccnc4c3)cc2)CC1 [(b), 3-(Z)-{1-(4-[N-methyl-N-(4-methylpiperazin-1-yl-methylcarbonyl)-amino]-phenyl-amino)-1-(quinoxalin-6-yl)-methylene}-6-chloro-2-indolinone]
[1]; Homo sapiens
  IC50: 4 nM

## CN(C)CCN(C)S(=O)(=O)c1ccc(N/C(=C2\C(=O)Nc3cc(F)ccc32)c2ccc3c(c2)ncn3C)cc1 [(au), 3-(Z)-{1-[4-(N-methyl-N-{2-dimethylamino-ethyl}-aminosulphonyl)-phenylamino]-1-(1-methyl-benzimidazol-5-yl)-methylene}-6-fluoro-2-indolinone]
[1]; Homo sapiens
  IC50: 13 nM

## CN(C)Cc1ccc(N/C(=C2\C(=O)Nc3cc(Cl)ccc32)c2ccc3c(c2)OCCO3)cc1 [(g), 3-(Z)-{1-[4-(dimethylaminomethyl)-phenylamino]-1-(3,4-ethylenedioxyphenyl)-methylene}-6-chloro-2-indolinone]
[1]; Homo sapiens
  IC50: 9 nM

## CN(C)CCC(=O)N(C)c1ccc(N/C(=C2\C(=O)Nc3cc(F)ccc32)c2ccc3c(c2)OCCO3)cc1 [(d), 3-(Z)-{1-[4-(N-methyl-N-{2-(dimethylamino)-ethyl-carbonyl}-amino)-phenylamino]-1-(3,4-ethylenedioxyphenyl)-methylene}-6-fluoro-2-indolinone]
[1]; Homo sapiens
  IC50: 3 nM

## Cn1cnc2cc(/C(Nc3ccc(Cn4cncn4)cc3)=C3/C(=O)Nc4cc(F)ccc43)ccc21 [(e), 3-(Z)-{1-[4-(1,2,4-triazol-1-yl-methyl)-phenylamino]-1-(1-methyl-benzimidazol-5-yl)-methylene}-6-fluoro-2-indolinone]
[1]; Homo sapiens
  IC50: 16 nM

## COC(=O)c1ccc2c(c1)NC(=O)/C2=C(\Nc1ccc(N(C)C(=O)CN(C)C)cc1)c1ccc2c(c1)OCCO2 [(t), 3-(Z)-{1-(4-[N-methyl-N-(dimethylaminomethylcarbonyl)-amino]-phenylamino)-1-(3,4-ethylenedioxyphenyl)-methylene}-6-methoxycarbonyl-2-indolinone]
[1]; Homo sapiens
  IC50: 0.6 nM

## CCC(=O)N(CCCN(C)C)c1ccc(N/C(=C2\C(=O)Nc3ccccc32)c2coc(N(Cc3ccccc3)Cc3ccccc3)n2)cc1 [Example 1.0, 3-(Z)-[1-{4-[N-propionyl-N-(3-dimethylamino-propyl)-amino]-phenylamino}-1-(2-dibenzylamino-4-oxazolyl)-methylene]-2-indolinone]
other
  melting point: 204 to 205 °C

## CCN(C)Cc1ccc(N/C(=C2\C(=O)Nc3cc(Cl)ccc32)c2ccc3c(c2)OCO3)cc1 [(c), 3-(Z)-{1-[4-(N-ethyl-N-methyl-aminomethyl)-phenylamino]-1-(3,4-methylenedioxy-phenyl)-methylene}-6-chloro-2-indolinone]
[1]; Homo sapiens
  IC50: 2 nM
